The nature of data set [1]: In situ brain/choroid plexus perfusion with capillary depletion: CNS uptake of [3H]-arginine in absence and presence of transporter inhibitors. It counts as in vivo, adult male BALB/c mice. The arrangement: Difference (Arginine - Sucrose): unit not given here. The conditions noted are these: male, BALB/c, mouse, 10 mins, 5ml/min, per mouse. As for the experimental part: (§1) The in situ brain/choroid plexus perfusion method was performed as previously described and will only be briefly detailed here. […] At the end of the perfusion period a CSF sample was taken from the cisterna magna, the animal was decapitated, the brain removed and samples taken under a Leica S4E L2 stereomicroscope (Leica; Buckinghamshire, UK). […] The circumventricular organs (CVOs) including the choroid plexus, pituitary gland and pineal gland were also sampled. Brain samples were also taken for capillary depletion analysis.
(§2) Both the physiological capillary depletion buffer and dextran solution were maintained at 4 °C to halt any cell metabolism and transport processes, and to reduce any cellular or protein damage due to heat generated from the homogenisation process. The whole brain homogenate was then taken for dextran density centrifugation (5,400 x g) and 4 °C to produce an endothelial cell-enriched pellet and supernatant containing brain parenchyma.
(§3) The transporter proteins these inhibitors target are listed in S1 Table in S1 File.
(§4) % change=RTissue−RInhibition /RTissue× 100 (2)

The subject of data set [2] is blood-brain and blood-CSF barriers. The description is as above. In kind it is in vivo, adult male BALB/c mice. The arrangement: Difference (Arginine - Sucrose): unit not given here. The conditions noted are these: for uptake of [3H]-arginine: [14C]-sucrose corrected; for Arginine, tissue/plasma ratio / Difference (Arginine - Sucrose): 10 mins, 5ml/min, per mouse. Here is the method:
as §1, §2, §3, §4

For data set [3] the test system is unchanged. The settings on record: male, BALB/c, mouse, in vivo, 10 min. As for the experimental part: as §1
It is specifically used in brain samples (including brain homogenate and brain supernatant) to measure the vascular space at all perfusion time points. At later time points, in particular, it may also represent the capillary endothelial cell volume and/ or diffusion across the brain capillary wall and into the brain interstitial fluid. In the pellet samples it will measure extracellular fluid and may also represent capillary endothelial cell volume. […] It may also represent any accumulation into the cells of the choroid plexus.

Data set [4] has the same test system. Description: Self-inhibition experiments: [3H]-ADMA uptake with 0.5-500 μM unlabelled ADMA and kinetic constants (Km, Vmax, Kd). It counts as in vivo, adult male BALB/c mice. Also noted: [3H] ADMA, hippocampus / [3H] ADMA, thalamus: unit not given beside the values.
In data set [5] the test system is NO production. Also noted: method as in PMID 17082183. The settings on record: cited from earlier work.
The subject of data set [6] is CAT-1. The settings on record: CAT-1 transports ADMA; cited from earlier work.
Where [7] appears, read: CONTROL, 10 mins, 5ml/min, single mice.

SMILES strings stand for the structures. Values joined by “and” are separate entries in the source; they are usually repeats but may differ in a detail not shown here. Identical values can stand only once. Like-named read-outs stand apart in the source and are kept apart here.

Take `N=C(N)NCCC[C@H](N)C(=O)O` [[^3H]-arginine, L-arginine]: the Kp at 10 min was found to be 0.607 in data set [1] (cerebellum, Arginine, tissue/plasma ratio, cerebellum, + 4mM BCH); 0.575 in data set [1] (cerebellum, Difference (Arginine - Sucrose), cerebellum, + 4mM BCH); 1.85 in data set [1] (choroid plexus, Difference (Arginine - Sucrose), choroid plexus, + 4mM BCH); 0.649 in data set [1] (frontal cortex, Arginine, tissue/plasma ratio, frontal cortex, + 4mM BCH); 0.617 in data set [1] (frontal cortex, Difference (Arginine - Sucrose), frontal cortex, + 4mM BCH); 0.0351 in data set [1] (frontal cortex, with L-homoarginine 20 mM in the artificial plasma, Arginine, tissue/plasma ratio, frontal cortex, + 20mM L-Homoarginine). Further, the Kp at 10 min was determined as 0.477 in data set [1] (hippocampus, Arginine, tissue/plasma ratio, hippocampus, + 4mM BCH); 0.457 in data set [1] (hippocampus, Difference (Arginine - Sucrose), hippocampus, + 4mM BCH); 0.631 in data set [1] (occipital cortex, Arginine, tissue/plasma ratio, occipital cortex, + 4mM BCH); 0.6 in data set [1] (occipital cortex, Difference (Arginine - Sucrose), occipital cortex, + 4mM BCH); 0.353 in data set [1] (whole brain homogenate, Arginine, tissue/plasma ratio, homogenate, + 4mM BCH); 0.332 in data set [1] (whole brain homogenate, Difference (Arginine - Sucrose), homogenate, + 4mM BCH). Besides, the Kp at 10 min, […] in data set [1] (cerebellum, with 20 mM L-homoarginine, Arginine, tissue/plasma ratio, cerebellum, + 20mM L-Homoarginine) stood at 0.0312; in data set [1] (choroid plexus, Arginine, tissue/plasma ratio, choroid plexus, + 4mM BCH), 2.01; in data set [1] (occipital cortex, with 20 mM L-homoarginine, Arginine, tissue/plasma ratio, occipital cortex, + 20mM L-Homoarginine), 0.0199; in data set [1] (with 20 mM L-homoarginine, Arginine, tissue/plasma ratio, supernatant, + 20mM L-Homoarginine) it was 0.0216. Besides, the “uptake into frontal cortex, times higher than into CSF” value in data set [2] (10 minutes) is on record as 5.7 times. The “uptake into pellet, times lower than into choroid plexus” value in data set [2] (10 minutes) is reported as 39.5 times. Besides, the “uptake of [3H]-arginine” value in data set [2] (CSF, 10 minutes) turned out to be 9.53 ± 2.41 ml.100g^-1; in data set [2] (capillary endothelial cell enriched pellet, 10 minutes) it was 6.47 ± 1.018 ml.100g^-1; in data set [2] (choroid plexus, 10 minutes) it was 255.86 ± 30.41 ml.100g^-1; in data set [2] (frontal cortex, 10 minutes) it was 54.65 ± 9.21 ml.100g^-1. Further, the “Arginine, tissue/plasma ratio” value was 0.6618 and 0.8652 and 0.401 and 0.4938 and 0.3347 and 0.5216 in data set [2] (caudate nucleus); 3.243 and 3.765 and 2.2598 and 3.422 and 1.518 and 2.959 in data set [2] (choroid plexus); 0.8204 and 0.8688 and 0.3825 and 0.5285 and 0.3141 and 0.5494 in data set [2] (frontal cortex); 0.5129 and 0.6918 and 0.3896 and 0.4547 and 0.2706 and 0.4979 in data set [2] (hippocampus); 0.9811 and 1.538 and 0.3381 and 0.6951 and 0.2905 and 0.3696 in data set [2] (hypothalamus); 0.6317 and 0.7248 and 0.327 and 0.4186 and 0.2687 and 0.5347 in data set [2] (occipital cortex). The “Arginine, tissue/plasma ratio” value is 3.254 and 2.641 and 1.189 and 1.192 and 1.144 and 2.275 in data set [2] (pituitary gland); 0.9502 and 1.029 and 0.4051 and 0.5618 and 0.2525 and 0.5368 in data set [2] (thalamus). Further, the “Difference (Arginine - Sucrose)” value was 0.6456 and 0.7471 and 0.378 and 0.4593 and 0.3101 and 0.4829 in data set [2] (caudate nucleus); 3.028 and 3.467 and 2.014 and 2.791 and 1.394 and 2.658 in data set [2] (choroid plexus); 0.7931 and 0.8428 and 0.3551 and 0.4902 and 0.2926 and 0.505 in data set [2] (frontal cortex); 0.4962 and 0.6689 and 0.3625 and 0.4201 and 0.2493 and 0.4621 in data set [2] (hippocampus); 0.9489 and 1.477 and 0.3149 and 0.634 and 0.2579 and 0.3397 in data set [2] (hypothalamus); 0.6113 and 0.7014 and 0.3051 and 0.3893 and 0.251 and 0.4973 in data set [2] (occipital cortex). Further, the “Difference (Arginine - Sucrose)” value in data set [2] (pineal gland) was 1.49 and 0.1187 and 0.66 and 1.347 and 0.9026 and 0.5878; in data set [2] (pituitary gland), 3.08 and 2.441 and 0.973 and 1.116 and 1.019 and 2.001; in data set [2] (thalamus) it was 0.929 and 0.9992 and 0.362 and 0.5168.

Take `OC[C@H]1O[C@@](CO)(O[C@H]2O[C@H](CO)[C@@H](O)[C@H](O)[C@H]2O)[C@@H](O)[C@@H]1O` [[^14C]-sucrose, sucrose]: the “distribution into capillary endothelial cells, times lower than into choroid plexus” value in data set [3] worked out at 31.4 times.

For `CN(C)C(N)=NCCC[C@H](N)C(=O)O.Cl.Cl` [unlabelled ADMA, N^G,N^G-dimethylarginine dihydrochloride], in data set [4] (500 μM unlabelled ADMA, frontal cortex), the “decrease of [3H]-ADMA uptake” value came to 79.9%. Besides, the “effect on uptake of [3H]-ADMA (62.5 nM)” value in data set [4] (0.5, 3.0, 10, 100 and 500μM un-labelled ADMA, all brain regions) is reported as “significantly self-inhibited”. Also, in data set [4] (setting [7]), the “Difference ([3H] ADMA minus [14C] Sucrose), hippocampus” value is 0.1991 and 0.2866 and 0.2044 and 0.2062; the “Difference ([3H] ADMA minus [14C] Sucrose), hypothalamus” value was 0.21 and 0.3614 and 0.2746 and 0.3021; the “Difference ([3H] ADMA minus [14C] Sucrose), occipital cortex” value was 0.1943 and 0.2753 and 0.1841 and 0.2419 and 0.2303; the “Difference ([3H] ADMA minus [14C] Sucrose), thalamus” value was 0.1695 and 0.2656 and 0.1763 and 0.2233 and 0.2154. In data set [4] (setting [7]), the “[3H] ADMA, hippocampus” value was 0.2134 and 0.305 and 0.2049 and 0.2208 and 0.2239; the “[3H] ADMA, hypothalamus” value is 0.2341 and 0.3969 and 0.298 and 0.3627 and 0.4134; the “[3H] ADMA, occipital cortex” value is 0.2132 and 0.2962 and 0.2074 and 0.2625 and 0.2565; the “[3H] ADMA, supernatant” value was 0.1192 and 0.1611 and 0.1028 and 0.139 and 0.1685. The “[3H] ADMA, thalamus” value in data set [4] (setting [7]) is 0.1804 and 0.2881 and 0.1916 and 0.2507 and 0.2348. Moreover, the “inhibition of NO production” value in data set [5] (normal ADMA concentrations within cells) was 10%. For the same compound, in data set [5] (plasma ADMA concentrations higher than normal), the “inhibition of NO production” value is on record as 70%. In data set [6], the Km was 183 ± 21 µM.

As usually defined, the Km is the concentration of substrate that gives half-maximal velocity.

The record behind these values is article PMC12157126, “Saturation kinetics and specificity of transporters for L-arginine and asymmetric dimethylarginine (ADMA) at the blood-brain and blood-CSF barriers” (PLOS One, 2025).
